Data as given in patent US20040001791A1, “Composition, method of use, and devices for the treatment of onychomycosis” (priority 2000, published 2004).
Entries after “also recorded” stand apart in the source; their conditions may differ.

Legend:
[1] = tested on: fungal infected fingernail (onychomycosis); test: Topical treatment of a fungal infected fingernail in a patient; assay type: in vivo, human
Excerpt: The copper sulfate solution was applied to their fingernails for approximately thirty minutes and then allowed to air dry. Excess copper sulfate powder was removed by washing two-three times with water. […] Monthly, the copper sulfate solution was applied as given above to the infected fingernail and to all fingernails on the same hand.
The bandage was applied to the infected nail and secured in place. Care was given to ensure that the solution soaked into the crevice along the edge of the nail bed and cuticle. […] The bandage was worn for two days and then replaced with a clean dry bandage to protect the nail from snagging. The treatment was repeated on Day 31 and again on Day 45; no further treatments were given.

[2] = tested on: fungal infected toe nail; test: Topical treatment of a fungal infected toe nail in a patient; assay type: in vivo, human; conditions: aqueous 10% (w/v) solution applied approximately thirty minutes, air dried, washed with water, Example 2 repeated monthly
Excerpt: As the treated nail grew, healthy nail tissue appeared at the base of the nail bed while the infected portion of the nail was pushed off the nail bed and periodically trimmed away. […] A patient diagnosed as having a fungal infected toe nail began treatment by applying with a cotton swab an aqueous 10% (w/v) copper(II)sulfate pentahydrate solution to the infected nail as well as to all nails on the same foot. […] As the treated nail grew, healthy nail tissue appeared at the base of the nail bed while the infected portion of the nail was pushed off the nail bed and periodically trimmed away. […] The infected portion of the patient's nail continued to have a bluish color.

SMILES | Nail examination after treatment ([1]; person, right index fingernail, 10% aqueous solution with trace of detergent on bandage worn two days, Day 1, 31, 45, examined Day 132) | Outcome of toe nail treatment (spread of fungal infection, nail condition) [2] | Outcome of fingernail treatment (spread of fungal infection, nail condition) ([1]; patient, aqueous 10% (w/v) solution applied approximately thirty minutes, washed, repeated monthly)
O=S(=O)([O-])[O-].[Cu+2] [copper sulfate] | New pink nail growth was present from the cuticle to a point midway along the nail |  | 
O.O.O.O.O.O=S(=O)([O-])[O-].[Cu+2] [copper(II)sulfate pentahydrate] |  | the fungal infection did not spread to healthy nail tissue; also recorded: resulting in a normal healthy nail | resulting in a normal healthy nail
